pIC50: −log10 of the molar value.
Tested on: 439559-082-T-J2-PDC spheroid viability
Assay: Anticancer human tumor 439559-082-T-J2-PDC patient-derived colon adenocarcinoma cell line growth inhibition [POLQ]
Settings: spheroids with HUVEC and MSC; for pIC50: curve of first compound; for viability, T/C: stronger effect = lower value
Description: Multicellular complex tumor spheroid response to Polymerase (POL) inhibitors (novobiocin, ART-558, RP6685) in combination with a variety of drugs and investigational agents in selected tumor cell lines
The POL inhibitors (novobiocin, ART-558, and RP6685) were evaluated both individually and in combination with standard of care and investigational anticancer small molecules within a complex spheroid model of solid tumors. . Complex spheroids include a stromal component modeled by human endothelial cells (HUVEC) and fibroblasts modeled by human mesenchymal stem cells (MSCs). The concentration ranges selected for each drug and investigational agent were based upon clinically achievable concentrations if the clinical Cmax of the agent was known.
Compounds. The drugs and investigational agents: novobiocin (NSC847541), ART-558 (NSC835418), RP-6685 (NSC848927), peposertib (NSC802822), ceralasertib (NSC780249), elimusertib (NSC800525), camonsertib (NSC841442), AZD-1390 (NSC803789), olaparib (NSC753686), talazoparib (NSC767125), rucaparib (NSC756644), sotorasib (NSC818433), MRTX-1133 (NSC836407), SN-38 (NSC673596), topotecan (NSC609699), epotoside (NSC141540), doxorubicin (NSC123127), gemcitabine (NSC613327), 5-fluorouracil (NSC19893), paclitaxel (NSC125973), vemurafenib (NSC761431), MSA-2 (NSC828583), SN-011 (NSC837082), adavosertib (NSC754352), prexasertib (NSC758257), carboplatin (NSC241240) and oxaliplatin (NSC266046), were obtained from the National Cancer Institute (NCI) Developmental Therapeutics Program Chemical Repository (21). The FDA-approved anticancer drug set is available from the Developmental Therapeutics Program at https://dtp.cancer.gov/organization/dscb/obtaining/. […] The stock solutions were prepared in dimethyl sulfoxide (DMSO, Sigma-Aldrich, St. Louis, MO, cat. D2650), except for the platinum compounds which were prepared in saline (Quality Biological, Gaithersburg, MD, cat. 114-055-101), at 800-fold the tested concentration and stored at -70 degrees C prior to their use. All drugs and investigational agents were tested over a range starting from a high concentration at or near the clinical Cmax and decreasing in half-log increments. If the clinical Cmax for an agent had not been determined, the highest concentration tested was 10 microM, except for SN-38, which was tested at a high concentration of 1 microM.
Cell Culture. All cells were maintained in an incubator at 37 degrees C and 5% CO2 with 95% humidity. The PDC lines were cultured according to standard operating procedures established by the NCI PDMR (https://pdmr.cancer.gov). Table 3 of the manuscript, lists the cell lines along with the number of the three cell types plated to form the mct-spheroids and media for tumor cell growth. After thawing, all PDC lines, except 997537-175-T-J1-PDC and 415267-285-R-J2-PDC, were cultured in Matrigel-coated flasks prepared with a working solution of 1X Ham's F-12 nutrient mix, without supplementation (Thermo Fisher Scientific, cat. 11765054), 100 U/mL penicillin-streptomycin (Thermo Fisher Scientific, cat. 15140122), and 2.5% Matrigel (Corning Inc., Corning, NY, cat. 354248) for the first three passages. The two PDC lines 997537-175-T-J1-PDC and 415267-285-R-J2-PDC were cultured on uncoated flasks. The 857933-349-R-J2-PDC line was cultured in 6C/Colon 1B media containing advanced DMEM/F-12 (Thermo Fisher Scientific, cat. 12634028), 10 mM HEPES (Thermo Fisher Scientific, cat. 15630080), 1X GlutaMAX supplement (Thermo Fisher Scientific, cat. 35050061), 0.1 mg/mL primocin (InvivoGen, San Diego, CA, cat. ant-pm-2), 10% defined fetal bovine serum, heat inactivated (HyClone Laboratories Inc., Logan, UT, cat. SH30070.03HI), 50% L-WRN conditioned media (ATCC, cat. CRL-3276), 1.25 mM N-Acetyl-L-cysteine (Sigma-Aldrich, cat. A9165), 10 mM nicotinamide (Sigma-Aldrich, cat. N0636), 1X B-27 supplement (Thermo Fisher Scientific, cat. 17504044), 1X N-2 supplement (Thermo Fisher Scientific, cat. […]
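Further: spheroids exposed to compounds for seven days before readout.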
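Wherever viability, T/C is given: 100% = DMSO vehicle control viability.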

In the case of `CCCS(=O)(=O)Nc1ccc(F)c(C(=O)c2c[nH]c3ncc(-c4ccc(Cl)cc4)cc23)c1F` + COC1C(OC(N)=O)C(O)C(Oc2ccc3c(O)c(NC(=O)c4ccc(O)c(CC=C(C)C)c4)c(=O)oc3c2C)OC1(C)C, the pIC50 (second compound 0.0316 µM) was under 5.00, the pIC50 (second compound 0.1 µM) was under 5.00 and the pIC50 (second compound 0.316 µM) was under 5.00. It also gave a pIC50 (second compound 1 µM) of under 5.00, a pIC50 (second compound 3.16 µM) of under 5.00 and a pIC50 (second compound 10 µM) of under 5.00. For the same compound, the viability, T/C (second compound 0.0316 µM, first compound 0.0316 µM) was 103%, the viability, T/C (second compound 0.0316 µM, first compound 0.1 µM) was 109% and the viability, T/C (second compound 0.0316 µM, first compound 0.316 µM) was 96.6%. The viability, T/C (second compound 0.0316 µM, first compound 1 µM) was 95.8%, the viability, T/C (second compound 0.0316 µM, first compound 3.16 µM) was 99.7% and the viability, T/C (second compound 0.0316 µM, first compound 10 µM) was 70%. The viability, T/C (second compound 0.1 µM, first compound 0.0316 µM) was 108%, the viability, T/C (second compound 0.1 µM, first compound 0.1 µM) was 107% and the viability, T/C (second compound 0.1 µM, first compound 0.316 µM) was 99.9%. It also gave a viability, T/C (second compound 0.1 µM, first compound 1 µM) of 102%, a viability, T/C (second compound 0.1 µM, first compound 3.16 µM) of 100% and a viability, T/C (second compound 0.1 µM, first compound 10 µM) of 67.9%. The viability, T/C (second compound 0.316 µM, first compound 0.0316 µM) was 104%, the viability, T/C (second compound 0.316 µM, first compound 0.1 µM) was 106% and the viability, T/C (second compound 0.316 µM, first compound 0.316 µM) was 101%. It also gave a viability, T/C (second compound 0.316 µM, first compound 1 µM) of 92.9%, a viability, T/C (second compound 0.316 µM, first compound 3.16 µM) of 94.2% and a viability, T/C (second compound 0.316 µM, first compound 10 µM) of 65.8%. It also gave a viability, T/C (second compound 1 µM, first compound 0.0316 µM) of 99.2%, a viability, T/C (second compound 1 µM, first compound 0.1 µM) of 104% and a viability, T/C (second compound 1 µM, first compound 0.316 µM) of 102%. It also gave a viability, T/C (second compound 1 µM, first compound 1 µM) of 103%, a viability, T/C (second compound 1 µM, first compound 3.16 µM) of 105% and a viability, T/C (second compound 1 µM, first compound 10 µM) of 68.4%. For the same compound, the viability, T/C (second compound 3.16 µM, first compound 0.0316 µM) was 93.7%, the viability, T/C (second compound 3.16 µM, first compound 0.1 µM) was 103% and the viability, T/C (second compound 3.16 µM, first compound 0.316 µM) was 94.3%. The viability, T/C (second compound 3.16 µM, first compound 1 µM) was 95.4%, the viability, T/C (second compound 3.16 µM, first compound 3.16 µM) was 93.1% and the viability, T/C (second compound 3.16 µM, first compound 10 µM) was 67.9%. The viability, T/C (second compound 10 µM, first compound 0.0316 µM) was 103%, the viability, T/C (second compound 10 µM, first compound 0.1 µM) was 95.2% and the viability, T/C (second compound 10 µM, first compound 0.316 µM) was 100%. The viability, T/C (second compound 10 µM, first compound 1 µM) was 99.2%, the viability, T/C (second compound 10 µM, first compound 3.16 µM) was 98.3% and the viability, T/C (second compound 10 µM, first compound 10 µM) was 71.4%.

Reference: PubChem BioAssay AID1963841 (Molecular Pharmacology Branch, DTP, NCI, 2024)
